Experimental data from US20220002427A1, “BISPECIFIC ANTIBODY AGAINST BCMA AND CD3 AND AN IMMUNOLOGICAL DRUG FOR COMBINED USE IN TREATING MULTIPLE MYELOMA” (ENGMAB SARL, priority 2016, published 2022).

System: H929 MM cells
Assay: H929 MM cell lysis with TCB alone or combined with lenalidomide, anti-PD-1 or daratumumab (co-culture with human leukocytes, flow cytometry)
Assay type: cell-based
Settings: H929 cells + leucocytes of Donor 1, 48 h
Description: FIGS. 21A-21B. Redirected T-cell lysis of H929 MM cells induced by anti-BCMA/anti-CD3 T-cell bispecific antibodies in combination with thalidomide derivatives (lenalidomide) or immunotherapeutic derivatives (anti-PD1 and anti-CD38 antibodies) as measured by flow cytometry. H929 MM cells were co-cultured with human leukocytes (n=1 or 5) and challenged to suboptimal concentrations of anti-BCMA/anti-CD3 T-cell bispecific antibody 83A10-TCcv (10 pM) (FIG. 21A) or 42-TCBcv (10 pM) (FIG. 21B) alone, in combination with suboptimal concentrations of lenalidomide (1 μM), anti-PD-1 (10 μg/ml) and anti-CD38 daratumumab (10 μg/ml).
Anti-BCMA/anti-CD3 T-cell bispecific antibody (namely 83A10-TCBcv or 42-TCBcv) was combined with three drugs representing different types of immunotherapy: lenalidomide, anti-PD-1 antibody and anti-CD38 antibody daratumumab. H929 MM cells were co-cultured with human leukocytes from healthy donors (n=1 or 5) in RPMI-1640 medium supplemented with 10% FBS, 0.5% gentamincin and 1% L-Glutamine at 37° C. in a humidified 5% CO2 incubator and challenged to suboptimal concentrations of 83A10-TCBcv (10 pM) (n=5) or 42-TCBcv (10 pM) (n=1) alone, or in combination with lenalidomide (1 μM), anti-PD-1 antibody (10 μg/ml) and anti-CD38 antibody daratumumab (10 μg/ml). […] FIG. 21B and Table 28 show the percentage of MM cell lysis when H929 cells and leucocytes from one healthy donor were exposed to 42-TCBcv (10 pM) combined with lenalidomide (1 μM), anti-PD-1 antibody (10 μg/ml) and anti-CD38 antibody daratumumab (10 μg/ml) for 48 h of culture.

[1] = with TCB (combination with 42-TCBcv)

Nc1cccc2c1CN(C1CCC(=O)NC1=O)C2=O (stereo not shown) [lenalidomide]
MM cell lysis [1]: 13.27%
MM cell lysis (without TCB): −1.78%

Daratumumab: anti-CD38 antibody (US20150246123)
MM cell lysis [1]: 42.29%
MM cell lysis (without TCB): 33.06%
